7 compounds from PMC3433420 (PLoS ONE, 2012) can be followed below.

In assay [1] the target is T1, PLCG1-NC tandem SH2 domains (Homo sapiens, UniProt P19174).
T1 construct: the tandem protein was included in our analysis with all internal amino acids linking the domains; 6X His; thioredoxin; made in house; host or cells: E. coli BL21(DE3)pLysS
T1 sequence (P19174 550-756 limits assumed): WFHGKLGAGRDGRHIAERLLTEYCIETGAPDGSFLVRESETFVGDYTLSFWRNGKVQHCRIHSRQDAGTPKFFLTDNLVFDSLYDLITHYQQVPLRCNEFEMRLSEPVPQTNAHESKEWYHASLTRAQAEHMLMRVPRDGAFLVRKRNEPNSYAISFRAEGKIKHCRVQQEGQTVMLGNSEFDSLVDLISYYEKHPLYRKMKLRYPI
As to the kind of experiment: FP saturation binding assay. The note with it: high-confidence ErbB interactions.

In the next assay the target is T2, RASA1-N SH2 domain (Homo sapiens, UniProt P20936).
T2 sequence (P20936 181-272 limits assumed): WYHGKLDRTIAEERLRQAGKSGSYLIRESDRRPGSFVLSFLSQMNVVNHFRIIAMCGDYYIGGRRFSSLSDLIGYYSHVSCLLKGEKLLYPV
As to the kind of experiment: FP saturation binding assay.

Where [2] appears, read: Protein PLCG1-NC, FP saturation binding, mean over replicate hits.
[3] abbreviates: protein PLCG1-NC, FP, mean of replicate hits.

Residues, ends and D or L forms follow the SMILES beside them.

What is called Kd is the equilibrium constant for the complex coming apart. Higher therefore signals weaker binding. Turning to `CC(C)C[C@H](NC(=O)[C@H](Cc1ccc(OP(=O)(O)O)cc1)NC(=O)[C@H](CCC(=O)O)NC(=O)[C@H](CCC(=O)O)NC(=O)[C@H](C)NC(=O)[C@@H](N)CC(=O)O)C(=O)N[C@H](C(=O)N1CCC[C@H]1C(=O)N[C@@H](CCC(N)=O)C(=O)N[C@@H](CCC(N)=O)C(=O)NCC(=O)N[C@@H](Cc1ccccc1)C(=O)N[C@@H](CC(=O)O)C(=O)O)C(C)C` [ErbB2 1023 13-mer] (HELM PEPTIDE1{D.A.E.E.[O=C([C@H](Cc1ccc(OP(=O)(O)O)cc1)N[*:1])[*:2]].L.V.P.Q.Q.G.F.D}$$$$V2.0), the Kd in assay [1] (setting [2]) worked out at 1.3 µM; on RASA1-N SH2 domain, 5.49 µM.

Consider `CC(C)[C@H](NC(=O)[C@H](CC(=O)O)NC(=O)[C@@H]1CCCN1C(=O)[C@H](CCC(N)=O)NC(=O)[C@H](CC(N)=O)NC(=O)[C@@H](NC(=O)[C@H](Cc1ccc(OP(=O)(O)O)cc1)NC(=O)[C@H](CCC(=O)O)NC(=O)[C@@H]1CCCN1C(=O)[C@H](CCC(N)=O)NC(=O)[C@@H]1CCCN1)C(C)C)C(=O)N[C@@H](CCCNC(=N)N)C(=O)N[C@@H](CC(=O)O)C(=O)O` [ErbB2 1139 13-mer] (HELM PEPTIDE1{P.Q.P.E.[O=C([C@H](Cc1ccc(OP(=O)(O)O)cc1)N[*:1])[*:2]].V.N.Q.P.D.V.R.D}$$$$V2.0), for which binding in assay [1] (setting [2]) was characterised by a dissociation constant (Kd) of 3.38 µM. In the case of `CC(C)C[C@H](NC(=O)[C@H](CC(N)=O)NC(=O)[C@@H](N)CC(=O)O)C(=O)N[C@@H](Cc1ccc(O)cc1)C(=O)N[C@@H](Cc1ccc(OP(=O)(O)O)cc1)C(=O)N[C@@H](Cc1c[nH]c2ccccc12)C(=O)N[C@@H](CC(=O)O)C(=O)N[C@@H](CCC(N)=O)C(=O)N[C@@H](CC(=O)O)C(=O)N1CCC[C@H]1C(=O)N1CCC[C@H]1C(=O)N[C@@H](CCC(=O)O)C(=O)N[C@@H](CC(=O)O)C(=O)O` [ErbB2 1222 13-mer] (HELM PEPTIDE1{D.N.L.Y.[O=C([C@H](Cc1ccc(OP(=O)(O)O)cc1)N[*:1])[*:2]].W.D.Q.D.P.P.E.D}$$$$V2.0), the dissociation constant Kd was found to be 1.28 µM in assay [1] (setting [2]) and 4.29 µM on RASA1-N SH2 domain. Consider `CSCC[C@H](NC(=O)[C@H](Cc1ccc(OP(=O)(O)O)cc1)NC(=O)[C@H](CCC(=O)O)NC(=O)[C@H](Cc1ccc(O)cc1)NC(=O)CNC(=O)[C@@H](N)CC(C)C)C(=O)N[C@@H](CC(=O)O)C(=O)N[C@H](C(=O)NCC(=O)N[C@@H](CO)C(=O)N[C@@H](CC(=O)O)C(=O)N[C@@H](CC(C)C)C(=O)N[C@@H](CC(=O)O)C(=O)O)C(C)C` [ErbB3 1224 13-mer] (HELM PEPTIDE1{L.G.Y.E.[O=C([C@H](Cc1ccc(OP(=O)(O)O)cc1)N[*:1])[*:2]].M.D.V.G.S.D.L.D}$$$$V2.0), for which the Kd in assay [1] (setting [3]) amounted to 4.22 µM; on RASA1-N SH2 domain it was 1.24 µM. In the case of `CSCC[C@H](NC(=O)[C@H](CCC(=O)O)NC(=O)[C@H](CCC(=O)O)NC(=O)[C@H](Cc1ccc(OP(=O)(O)O)cc1)NC(=O)CNC(=O)[C@H](CCC(N)=O)NC(=O)[C@H](CCC(=O)O)NC(=O)[C@@H](N)CO)C(=O)N[C@@H](CCCNC(=N)N)C(=O)N[C@@H](C)C(=O)N[C@@H](Cc1ccccc1)C(=O)N[C@@H](CCC(N)=O)C(=O)N[C@@H](CC(=O)O)C(=O)O` [ErbB3 1289 13-mer] (HELM PEPTIDE1{S.E.Q.G.[O=C([C@H](Cc1ccc(OP(=O)(O)O)cc1)N[*:1])[*:2]].E.E.M.R.A.F.Q.D}$$$$V2.0), the values for the Kd (in assay [1] (setting [3]); at RASA1-N SH2 domain) were 6.14 µM and 8.83 µM, respectively.

Consider `CSCC[C@H](NC(=O)[C@H](Cc1ccc(OP(=O)(O)O)cc1)NC(=O)CNC(=O)[C@H](CCC(=O)O)NC(=O)[C@H](CCC(=O)O)NC(=O)[C@H](CC(=O)O)NC(=O)[C@H](CC(C)C)NC(=O)[C@H](CCC(=O)O)NC(=O)CNC(=O)[C@H](CCCNC(=N)N)NC(=O)[C@@H]1CCCN1)C(=O)N[C@H](C(=O)N1CCC[C@H]1C(=O)N[C@@H](CCSC)C(=O)N[C@@H](CCCNC(=N)N)C(=O)N[C@@H](CC(=O)O)C(=O)N[C@@H](CCCCN)C(=O)N[C@@H](CC(=O)O)C(=O)O)[C@@H](C)O` [ErbB4 1150 18-mer] (HELM PEPTIDE1{P.R.G.E.L.D.E.E.G.[O=C([C@H](Cc1ccc(OP(=O)(O)O)cc1)N[*:1])[*:2]].M.T.P.M.R.D.K.D}$$$$V2.0), for which the Kd in assay [1] (setting [3]) came out at 2.82 µM; at RASA1-N SH2 domain, 0.61 µM.

Consider `CC(C)C[C@H](NC(=O)[C@H](Cc1ccc(OP(=O)(O)O)cc1)NC(=O)[C@H](CC(C)C)NC(=O)[C@@H]1CCCN1C(=O)[C@H](CCC(=O)O)NC(=O)[C@H](CC(N)=O)NC(=O)[C@@H](NC(=O)[C@H](Cc1ccc(O)cc1)NC(=O)[C@H](CCC(=O)O)NC(=O)[C@H](CC(=O)O)NC(=O)[C@@H](N)CCC(=O)O)C(C)C)C(=O)N[C@@H](CC(N)=O)C(=O)N[C@H](C(=O)N[C@@H](Cc1ccccc1)C(=O)N[C@@H](C)C(=O)N[C@@H](CC(N)=O)C(=O)N[C@H](C(=O)N[C@@H](CC(=O)O)C(=O)O)[C@@H](C)O)[C@@H](C)O` [ErbB4 1208 18-mer] (HELM PEPTIDE1{E.D.E.Y.V.N.E.P.L.[O=C([C@H](Cc1ccc(OP(=O)(O)O)cc1)N[*:1])[*:2]].L.N.T.F.A.N.T.D}$$$$V2.0), for which the Kd in assay [1] (protein PLCG1-NC, mean of replicate hits) is 0.97 µM; on RASA1-N SH2 domain, 6.4 µM.
